In patent US20080274076A1, “Composition for Use in Controlling Aedes Aegypti Mosquitoes” (priority 2005, published 2008):

What was measured:
[1] = system: Aedes aegypti mosquitoes; assay: field test of the luring effect: open water tanks, one treated with heneicosane solution; assay type: in vivo
Procedure: Fifteen open tanks with water filled to the top were kept in the open. All the tanks were made of same material, were of the same size and contained same amount of water from the same source. The tanks were numbered consecutively and allowed to remain for a week.
All the fifteen tanks were drained of water and thoroughly cleaned. Subsequently, they were filled with water from the same source. In tank No. 1, a predetermined amount of a solution of heneicosane in n-hexane (1% w/v) was added. After fifteen days, water from each tank was analysed.
Example No. 4 was repeated 14 times with heneicosane being added in tank Nos. 2 to 15 consequentially.
Example Nos. 4 and 5 were repeated with heneicosane dissolved in n-pentane.
The above example was repeated with varying concentrations of heneicosane in the solvent.

[2] = system: Aedes aegypti mosquitoes; assay: oviposition attractant effect of semio-chemicals identified in larval conditioned water; assay type: in vivo
Description: The present invention also relates to a process for the preparation of compositions for use in lure and/or killing of Aedes aegypti mosquitoes. The present invention is based on the unexpected finding that Aedes aegypti mosquitoes tend to lay eggs in stagnant water where eggs of the same species of mosquitoes had been laid previously. This led the inventors to analyse various samples of water which in turn led to the finding that water in which eggs had previously been laid by Aedes aegypti mosquitoes and which had hatched into larval stage contained various semio-chemicals. Analysis of these semio-chemicals identified them as heneicosane, nonacosane, octadecane, isopropyl myristate and docosane. […] When, stagnant water in which Aedes aegypti mosquitoes had bred earlier was left untouched the incidence of further egg laying in the same water and thriving of larval population increased. […]
Aedes aegypti mosquitoes are bred and the water is collected for isolation where the mosquitoes are at larval stage. […] The extractant is analysed by various spectral techniques like IR, NMR and GCMS and the five semio-chemicals identified are heneicosane, nonacosane, octadecane, isopropyl myristate and decosane.

CCCCCCCCCCCCCCCCCCCCC [heneicosane, n-heneicosane]
attraction of mosquitoes to lay eggs in the treated tank ([1]; Example 4 repeated 14 times with heneicosane added in tank Nos. 2 to 15 consequentially): each time the tank containing heneicosane attracted Aedes aegypti mosquitoes to lay their eggs therein
luring result with another solvent ([1]; Example Nos. 4 and 5 repeated with heneicosane dissolved in n-pentane): The results were exactly the same
mosquito larvae found in tanks (egg laying lured to treated tank) ([1]; field conditions, 15 open tanks, solution of heneicosane in n-hexane (1% w/v) added to tank No. 1, after fifteen days): only tank No. 1 containing the heneicosane contained mosquito larvae
effectiveness as oviposition attractant among the five identified semio-chemicals ([2]; compared with nonacosane, octadecane, isopropyl myristate and docosane): most effective oviposition attractant
site of egg laying, stagnant water versus water containing heneicosane ([2]; stagnant water kept alongside water containing heneicosane): the entire egg laying took place only in water containing heneicosane
